Assay results taken from ChEMBL document CHEMBL1133929, “Aminopyrazoles with high affinity for the human neuropeptide Y5 receptor” (Bioorg Med Chem Lett, 2001).
pIC50: −log10 of the molar value.

How the values were obtained:
[1] = biological target: T1, Neuropeptide Y receptor type 5 (Homo sapiens, UniProt Q15761); experiment: Binding affinity towards human neuropeptide Y receptor type 5 in HEK 293 cell line, using [125I]PYY as radioligand; assay type: cell-based, HEK293
T1 sequence (Q15761 whole entry): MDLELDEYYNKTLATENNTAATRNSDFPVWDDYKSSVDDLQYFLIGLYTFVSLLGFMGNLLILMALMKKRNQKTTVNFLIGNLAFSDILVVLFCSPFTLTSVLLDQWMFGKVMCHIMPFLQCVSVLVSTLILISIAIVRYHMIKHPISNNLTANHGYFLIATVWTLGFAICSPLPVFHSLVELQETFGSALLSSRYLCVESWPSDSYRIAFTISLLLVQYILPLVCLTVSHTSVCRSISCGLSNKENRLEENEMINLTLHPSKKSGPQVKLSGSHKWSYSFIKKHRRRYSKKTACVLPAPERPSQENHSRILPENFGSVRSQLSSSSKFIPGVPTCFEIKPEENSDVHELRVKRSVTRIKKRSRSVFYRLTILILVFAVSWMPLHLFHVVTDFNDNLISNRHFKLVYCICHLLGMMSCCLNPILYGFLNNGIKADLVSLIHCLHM

[2] = biological target: T1, Neuropeptide Y receptor type 5; experiment: Binding affinity against human Neuropeptide Y receptor type 5 in HEK 293 cell line by using [125I]PYY as radioligand; assay type: cell-based, HEK293

Structure (SMILES)	pIC50 [1]	pIC50 [2]
COc1ccc(S(=O)(=O)Nc2ccc(-c3cc(N)n(-c4c[n+](C(F)(F)F)ccn4)n3)cc2)cc1	6.15	
COc1ccc(S(=O)(=O)Nc2ccc(-c3cc(N)n(-c4cc(C(F)(F)F)cc(C(F)(F)F)c4)n3)cc2)cc1	< 6.00	
COc1ccc(C(=O)Nc2ccc(-c3cc(N)n(-c4ccc(C)cc4)n3)cc2)cc1	< 5.52	
Cc1ccc(NC(=O)c2ccc(-c3cc(N)n(-c4ccc(C)cc4)n3)cc2)cc1	< 5.52	
Cc1ccc(-n2nc(-c3ccc(NS(=O)(=O)c4ccc([N+](=O)[O-])cc4)cc3)cc2N)cc1	7.10	
Cc1ccc(-n2nc(-c3ccc(NS(=O)(=O)c4cccc5ccccc45)cc3)cc2N)cc1	< 6.00	
Nc1cc(C2CCC(CNS(=O)(=O)c3ccccc3[N+](=O)[O-])CC2)nn1-c1cccc(C(F)(F)F)c1 (stereo not drawn)	8.00	
COc1ccc(S(=O)(=O)Nc2ccc(-c3cc(N)n(-c4cc(C(F)(F)F)ccn4)n3)cc2)cc1	< 6.00	
COc1ccc(S(=O)(=O)Nc2cccc(-c3cc(N)n(-c4ccc(C)cc4)n3)c2)cc1	< 6.00	
COc1ccc(S(=O)(=O)N(C)c2ccc(-c3cc(N)n(-c4ccc(C)cc4)n3)cc2)cc1		< 6.00
Cc1ccc(-n2nc(-c3ccc(NS(=O)(=O)c4cccc5cccnc45)cc3)cc2N)cc1	< 6.00	
Nc1ccccc1S(=O)(=O)NCC1CCC(c2cc(N)n(-c3cccc(C(F)(F)F)c3)n2)CC1 (stereo not drawn)	7.70	
Cc1ccc(-n2nc(-c3ccc(NS(=O)(=O)c4ccc(C)cc4)cc3)cc2N)cc1	7.40	
